Laboratory results: PMC8686256, “DZNep promotes mouse bone defect healing via enhancing both osteogenesis and osteoclastogenesis” (Stem Cell Research & Therapy, 2021)

How the values were obtained:
[1] = test system: primary BMSC; assay: Osteoblast differentiation and mineralization, ALP and Alizarin red staining; type: cell-based, mouse
Protocol: Primary BMSC were obtained from the whole bone marrow of male 4-week-old C57BL/6 mice. In brief, cells were extracted from the tibiae and femurs bone marrow and suspended in α-MEM supple with 10% FBS, and 1% penicillin/streptomycin. Then, the cell cultures were kept in a humid environment at 37 °C with 5% CO2 until they reached 90% confluence. For further identifying the effect of DZNep on osteogenesis, bone marrow-derived mouse mesenchymal stem cells were firstly seeded into the 48-well plates for one day at a density of 5 × 10^4 cells/well. Then the medium was changed by low-glucose DMEM with 15% FBS, 5 mM β-glycerophosphate, 50 µg/mL ascorbic acid, 10-7 mM dexamethasone, and various concentrations of DZNep (0, 12.5, 25, 50, and 100 nM). The medium was changed twice a week. For EZH2 gene knockdown studies, the cells were transfected with virus constructed of different EZH2 short hairpin RNA (shRNA) and negative control shRNA by mixed with polybrene (final concentration of 10ug/ml) for 48 h. The transfection mixture was then replaced by complete α-MEM added with puromycin for 24 h, and BMSCs were then seeded into a 48-well plate at the density of 5 × 10^4 cells/well with complete α-MEM for 24 h. The culture medium was then replaced by low-glucose DMEM with 15% FBS, 5 mM β-glycerophosphate, 50 µg/mL ascorbic acid, 10-7 mM dexamethasone. The medium was changed twice a week. […]

[2] = test system: osteoclast-related genes in BMMs; assay: qPCR of osteoclast-related genes in BMMs; type: cell-based, mouse
Protocol: BMMs were cultured in 6-well plates at the density of 2 × 10^5 cells/well in α-MEM supplemented with M-CSF (30 ng/ml), RANKL (50 ng/ml). The cells were then treated with or without 25 nM DZNep for 0, 1, 3, 5 days, or with various concentrations of DZNEP (0, 6.25, 25 nM) for 5 days, or with negative control siRNA, negative control siRNA with DZNep, and Foxc1 small interfering RNA (siRNA) with DZNep for 5 days. Once the culture completed, the Axygen RNA Miniprep Kit (Axygen, Union City, CA, USA) was used to extract the total RNA. BMSC were seeded in a 6-well plate at a number of 4 × 10^5 cells/well and treated with 0, 25, 50, 100 nM of DZNep combined with osteoblast-cultured medium for 24 h, or with or without 100 nM DZNep combined with osteoblast-cultured medium for 0 and 7 days, or with negative control siRNA, negative control siRNA with DZNep, and Wnt4 small interfering RNA (siRNA) with DZNep combined with osteoblast-cultured medium for 7 days. Once the culture completed, the Axygen RNA Miniprep Kit (Axygen, Union City, CA, USA) was used to extract the total RNA. After reverse transcription to obtain cDNA from the RNA template by using the Prime Script RT reagent Kit was finished. The real-time PCR assay was subsequently performed by using the SYBR® Premix Ex Taq™ II on an ABI 7500 Sequencing Detection System (Applied Biosystems, Foster City, CA). Specifically, total volume of 10 μl liquid consisted by 5 μl of SYBR® Premix Ex Taq™ II, 1 μl of diluted cDNA, 0.4 μl of mixed forward and reverse primer, and 3.6 μl of ddH2O was added into each hole of 384 PCR plate. Conditions of the 40 cycles were: 95 °C for 5 s and 60 °C for 30 s. The melting curves and reverse transcription PCR (RT-PCR) were the methods to detect the specificity of amplification product. Each target’s quantity, run in triplicate, was normalized to Actin Beta (Actb). […]

SMILES: Nc1nccc2c1ncn2C1C=C(CO)C(O)C1O (centres unmarked) [DZNep, 3-Deazaneplanocin]
- osteoblast differentiation (ALP staining) ([1]; 7 days, especially 50 nM): promoted
- osteoblast mineralization (Alizarin red staining) ([1]; 28 days): enhanced in a dose-dependent manner
- expression of Trap, Ctsk, Atp6v0d2 (qPCR) ([2]; 25 nM, 0, 1, 3, 5 days): significantly enhanced in a time-dependent manner
- mRNA expression of Foxc1 in BMMs ([2]; RANKL and DZNep treatment for 5 days): upregulated
- expression of Calcr, c-FOS, Nfatc1, Trap, Ctsk, Atp6v0d2 (qPCR) ([2]; indicated DZNep concentrations, 5 days): upregulated in a dose-dependent manner
